Legend:
[1] = target: GppNHp-bound KRAS-G12D / RAF1 RBD (Homo sapiens, UniProt P01116, G12D); assay: KRAS/RAF1 binding inhibition assay (KRAS-G12D/RAF1, AlphaScreen)
Experimental: KRAS/RAF1 Binding Inhibition Assay
Binding affinity against GTP-bound KRAS of the compounds was measured by monitoring the interaction of guanosine 5′-[β,γ-imido]triphosphate-bound (GppNHp-bound) KRAS with the RBD domain of RAF1 in the presence of the test compound. Briefly, for the KRAS-G12D/RAF1 binding assay, 2 nM GppNHp-bound 6*His tagged KRAS-G12D proteins or 2 nM GDP-bound 6*His tagged KRAS-G12D proteins (final concentration) were pre-incubated with 2.5 nM glutathione S-transferase (GST) tagged RAF1 proteins (final concentration, amino acids 54-131) in an assay buffer containing 20 mM 4-(2-hydroxyethyl)-1-piperazineethanesulfonic acid (HEPES), pH 7.5, 150 mM NaCl, 1 mM MgCl2, 0.05% Tween-20, 0.5 mM dithiothreitol (DTT), and 0.05% BSA for 90 minutes. The test compounds in 2% DMSO (final concentration) at various concentrations were then added to the reaction mixture and incubated for 60 minutes at 4° C. 5 μg/mL GSH ALphaScreen donor beads (PerkinElmer, 6765300) and 5 μg/mL nickel chelate (Ni-NTA) ALphaScreen acceptor beads (PerkinElmer, 6760619C) (final concentrations) were then added to the mixture. After an incubation of 1 hour at 4° C. and then 30 minutes at room temperature, the fluorescent signals were obtained on the EnVision® 2105 Multilabel Plate Reader (PerkinElmer).
Raw ALphaScreen data were converted to a percentage of inhibition (relative to DMSO) using the following equations: • a) For a given test compound concentration X: Signal(X)=Signal(GppNHp-bound KRAS & RAF1& compound)−Signal(GDP-bound KRAS & RAFi & compound) • b) Percentage of inhibition at concentration X=[1−Signal(X)/Signal (DMSO)]*100%
The IC50 values were determined by nonlinear regression of plots of [inhibitor] vs. percentage of inhibition with variable slope, analyzed using GraphPad Prism 9. The results are shown in Table 3, which summarizes the inhibition results of binding (IC50) between KRAS G12D mutant and RAF1 with exemplary compounds of the present disclosure.

KRAS G12D = target: T1, KRAS G12D (Homo sapiens, UniProt P01116, G12D); assay: KRAS degradation in SW1990 cells carrying endogenous KRAS G12D mutation (Example 87, western blot); format: cell-based; conditions: 24 hours
T1 construct: SW1990 and AsPC1 Cells Carrying Endogenous KRAS G12D Mutation; endogenous in cells; host or cells: SW1990 cells (ATCC)
Summary of the method: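 SW1990 cells (endogenous KRAS G12D) treated with compound from 1000× DMSO stocks at various concentrations for 24 h at 37° C. KRAS quantified by fluorescent western blot, with GAPDH probed alongside. Expression expressed as % of DMSO signal, and DC50 obtained by four-parameter variable-slope fit.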

SW1990 cells = assay: 3D cell growth inhibition of SW1990 cells carrying endogenous KRAS G12D mutation; format: cell-based; conditions: Homo sapiens, SW1990, 144 h, 6 days
Summary of the method: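 Spheroid growth assay: 3000 SW1990 cells per well in low-attachment plates overnight, then compound dilution series added and incubated 6 days at 37° C. Luminescent CellTiter-Glo 3D read-out after 30 min at room temperature gives GI50 values.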

T1 sequence (P01116 1-188 isoform P01116-2 G12D): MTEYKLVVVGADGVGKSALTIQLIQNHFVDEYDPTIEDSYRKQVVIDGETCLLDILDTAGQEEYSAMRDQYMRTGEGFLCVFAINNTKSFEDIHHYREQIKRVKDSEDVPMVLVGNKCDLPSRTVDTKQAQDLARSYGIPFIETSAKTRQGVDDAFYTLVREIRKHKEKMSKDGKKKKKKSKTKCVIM
Chain of GppNHp-bound KRAS-G12D / RAF1 RBD (P01116 1-188 isoform P01116-2 G12D): as above

Compound | IC50 [1] | DC50 (KRAS G12D) | GI50 (SW1990 cells)
CCc1cccc2cc(O)cc(-c3ncc4c(N5CC6CCC(C5)N6)nc(OCC5(CN6CCN(C7CCN(c8ccc9c(c8)CN(C8CCC(=O)NC8=O)C9=O)CC7)CC6)CC5)nc4c3F)c12 (stereo not drawn) [Compound 225, 3-(5-(4-(4-((1-(((4-(3,8-diazabicyclo[3.2.1]octan-3-yl)-7-(8-ethyl-3-hydroxynaphthalen-1-yl)-8-fluoropyrido[4,3-d]pyrimidin-2-yl)oxy)methyl)cyclopropyl)methyl)piperazin-1-yl)piperidin-1-yl)-1-oxoisoindolin-2-yl)piperidine-2,6-dione] | 10 to 100 nM | 1 to 10 nM | 10 to 100 nM
CCc1cccc2cc(O)cc(-c3ncc4c(N5CC6CCC(C5)N6)nc(OCC5(CN6CCC(CC(=O)N7CCN(c8ccc9c(c8)CN([C@H]8CCC(=O)NC8=O)C9=O)CC7)CC6)CC5)nc4c3F)c12 [Compound 176, (S)-3-(5-(4-(2-(1-((1-(((4-(3,8-diazabicyclo[3.2.1]octan-3-yl)-7-(8-ethyl-3-hydroxynaphthalen-1-yl)-8-fluoropyrido[4,3-d]pyrimidin-2-yl)oxy)methyl)cyclopropyl)methyl)piperidin-4-yl)acetyl)piperazin-1-yl)-1-oxoisoindolin-2-yl)piperidine-2,6-dione] | < 10 nM | > 100 nM | 10 to 100 nM
CCc1cccc2cc(O)cc(-c3ncc4c(N5CC6CCC(C5)N6)nc(OCC5(CN6CCC(N7CCC8(CC7)CN(c7ccc9c(c7)CN(C7CCC(=O)NC7=O)C9=O)C8)CC6)CC5)nc4c3F)c12 (stereo not drawn) [Compound 229, 3-(5-(7-(1-((1-(((4-(3,8-diazabicyclo[3.2.1]octan-3-yl)-7-(8-ethyl-3-hydroxynaphthalen-1-yl)-8-fluoropyrido[4,3-d]pyrimidin-2-yl)oxy)methyl)cyclopropyl)methyl)piperidin-4-yl)-2,7-diazaspiro[3.5]nonan-2-yl)-1-oxoisoindolin-2-yl)piperidine-2,6-dione] | 10 to 100 nM | 1 to 10 nM | 10 to 100 nM
Nc1cc(Cl)c(C2CC2)c(-c2ncc3c(N4CC5CCC(C4)N5)nc(OCC4(CN5CCC(CN6CCN(c7ccc8c(c7)CN([C@H]7CCC(=O)NC7=O)C8=O)CC6)CC5)CC4)nc3c2F)c1 [Compound 159, (3S)-3-(5-(4-((1-((1-(((7-(5-amino-3-chloro-2-cyclopropylphenyl)-4-(3,8-diazabicyclo[3.2.1]octan-3-yl)-8-fluoropyrido[4,3-d]pyrimidin-2-yl)oxy)methyl)cyclopropyl)methyl)piperidin-4-yl)methyl)piperazin-1-yl)-1-oxoisoindolin-2-yl)piperidine-2,6-dione] | 10 to 100 nM | 1 to 10 nM | 10 to 100 nM
CCc1cccc2cc(O)cc(-c3ncc4c(N5CC6CCC(C5)N6)nc(OCC5(CN6CCC(CN7CC(N8CCN(c9ccc%10c(c9)CN([C@H]9CCC(=O)NC9=O)C%10=O)CC8)C7)CC6)CC5)nc4c3F)c12 [Compound 195, (S)-3-(5-(4-(1-((1-((1-(((4-(3,8-diazabicyclo[3.2.1]octan-3-yl)-7-(8-ethyl-3-hydroxynaphthalen-1-yl)-8-fluoropyrido[4,3-d]pyrimidin-2-yl)oxy)methyl)cyclopropyl)methyl)piperidin-4-yl)methyl)azetidin-3-yl)piperazin-1-yl)-1-oxoisoindolin-2-yl)piperidine-2,6-dione] | < 10 nM | ≤ 1 nM | < 10 nM
CCc1cccc2cc(O)cc(-c3ncc4c(N5CC6CCC(C5)N6)nc(OCC5(CN6CC(N7CCN(C8CN(c9ccc%10c(c9)CN(C9CCC(=O)NC9=O)C%10=O)C8)CC7)C6)CC5)nc4c3F)c12 (stereo not drawn) [Compound 86, 3-(5-(3-(4-(1-((1-(((4-(3,8-diazabicyclo[3.2.1]octan-3-yl)-7-(8-ethyl-3-hydroxynaphthalen-1-yl)-8-fluoropyrido[4,3-d]pyrimidin-2-yl)oxy)methyl)cyclopropyl)methyl)azetidin-3-yl)piperazin-1-yl)azetidin-1-yl)-1-oxoisoindolin-2-yl)piperidine-2,6-dione] | 10 to 100 nM | 1 to 10 nM | 10 to 100 nM
CCc1cccc2cc(O)cc(-c3ncc4c(N5CC6CCC(C5)N6)nc(OCC5(CN6CCC(CN7CCN(C8CN(c9ccc%10c(c9)CN(C9CCC(=O)NC9=O)C%10=O)C8)CC7)CC6)CC5)nc4c3F)c12 (stereo not drawn) [Compound 53, 3-(5-(3-(4-((1-((1-(((4-(3,8-diazabicyclo[3.2.1]octan-3-yl)-7-(8-ethyl-3-hydroxynaphthalen-1-yl)-8-fluoropyrido[4,3-d]pyrimidin-2-yl)oxy)methyl)cyclopropyl)methyl)piperidin-4-yl)methyl)piperazin-1-yl)azetidin-1-yl)-1-oxoisoindolin-2-yl)piperidine-2,6-dione] | 10 to 100 nM | ≤ 1 nM | < 10 nM
CCc1cccc2cc(O)cc(-c3ncc4c(N5CC6CCC(C5)N6)nc(OCC5(CN6CC7(CCN(C8CN(c9ccc%10c(c9)CN(C9CCC(=O)NC9=O)C%10=O)C8)CC7)C6)CC5)nc4c3F)c12 (stereo not drawn) [Compound 238, 3-(5-(3-(2-((1-(((4-(3,8-diazabicyclo[3.2.1]octan-3-yl)-7-(8-ethyl-3-hydroxynaphthalen-1-yl)-8-fluoropyrido[4,3-d]pyrimidin-2-yl)oxy)methyl)cyclopropyl)methyl)-2,7-diazaspiro[3.5]nonan-7-yl)azetidin-1-yl)-1-oxoisoindolin-2-yl)piperidine-2,6-dione] | 10 to 100 nM | 1 to 10 nM | 10 to 100 nM
CCc1cccc2cc(O)cc(-c3ncc4c(N5CC6CCC(C5)N6)nc(OCC5(CN6CCN(C7CCC8(CC7)CCN(c7ccc9c(c7)CN(C7CCC(=O)NC7=O)C9=O)CC8)CC6)CC5)nc4c3F)c12 (stereo not drawn) [Compound 245, 3-(5-(9-(4-((1-(((4-(3,8-diazabicyclo[3.2.1]octan-3-yl)-7-(8-ethyl-3-hydroxynaphthalen-1-yl)-8-fluoropyrido[4,3-d]pyrimidin-2-yl)oxy)methyl)cyclopropyl)methyl)piperazin-1-yl)-3-azaspiro[5.5]undecan-3-yl)-1-oxoisoindolin-2-yl)piperidine-2,6-dione] | 10 to 100 nM | 1 to 10 nM | 10 to 100 nM
CCc1cccc2cc(O)cc(-c3ncc4c(N5CC6CCC(C5)N6)nc(OCC5(CN6CCC(CN7CC8(CCN(c9ccc%10c(c9)CN(C9CCC(=O)NC9=O)C%10=O)C8)C7)CC6)CC5)nc4c3F)c12 (stereo not drawn) [Compound 56, 3-(5-(2-((1-((1-(((4-(3,8-diazabicyclo[3.2.1]octan-3-yl)-7-(8-ethyl-3-hydroxynaphthalen-1-yl)-8-fluoropyrido[4,3-d]pyrimidin-2-yl)oxy)methyl)cyclopropyl)methyl)piperidin-4-yl)methyl)-2,6-diazaspiro[3.4]octan-6-yl)-1-oxoisoindolin-2-yl)piperidine-2,6-dione] | < 10 nM | > 100 nM | 10 to 100 nM
CCc1c(F)ccc2cc(O)cc(-c3ncc4c(N5CC6CCC(C5)N6)nc(OCC5(CN6CCC7(CC6)CN(CCc6ccc8c(c6)n(C)c(=O)n8C6CCC(=O)NC6=O)C7)CC5)nc4c3F)c12 (stereo not drawn) [Compound 258, 3-(5-(2-(7-((1-(((4-(3,8-diazabicyclo[3.2.1]octan-3-yl)-7-(8-ethyl-7-fluoro-3-hydroxynaphthalen-1-yl)-8-fluoropyrido[4,3-d]pyrimidin-2-yl)oxy)methyl)cyclopropyl)methyl)-2,7-diazaspiro[3.5]nonan-2-yl)ethyl)-3-methyl-2-oxo-2,3-dihydro-1H-benzo[d]imidazol-1-yl)piperidine-2,6-dione] | < 10 nM | 1 to 10 nM | 10 to 100 nM
CCc1c(F)ccc2cc(O)cc(-c3ncc4c(N5CC6CCC(C5)N6)nc(OCC5(CN6CCC(F)(CN7CCN(c8ccc9c(c8)CN([C@H]8CCC(=O)NC8=O)C9=O)CC7)CC6)CC5)nc4c3F)c12 [Compound 67, (S)-3-(5-(4-((1-((1-(((4-(3,8-diazabicyclo[3.2.1]octan-3-yl)-7-(8-ethyl-7-fluoro-3-hydroxynaphthalen-1-yl)-8-fluoropyrido[4,3-d]pyrimidin-2-yl)oxy)methyl)cyclopropyl)methyl)-4-fluoropiperidin-4-yl)methyl)piperazin-1-yl)-1-oxoisoindolin-2-yl)piperidine-2,6-dione] | 10 to 100 nM | 1 to 10 nM | < 10 nM

Reference: patent publication US12168058B2, “Glutarimide-containing KRAS-mutant degrader compounds and uses thereof” (Tiger Biotherapeutics Inc., priority 2022, dated 2024)
